What was measured:
[1] = tested on: 10 day old Sprague Dawley rat pups; experiment: Neonatal SE model, intra-amygdala KA in P10 rat pups, EEG; format: in vivo; details: 150 µmol/kg intraperitoneally, 40 min post-KA
Procedure: 10 day old Sprague Dawley rat pups were obtained from Harlan UK Limited (Blackthorn, UK). Rat pups were equipped with skull surface EEG and given intra-amygdala microinjection of kainic acid (2 µg) via an implanted guide cannula. P10 rat pups develop SE shortly after KA injection. Seizures in the model are propagated to the hippocampus and surface EEG recordings have previously shown a transition to low amplitude high frequency EEG, developing into high amplitude high frequency epileptiform EEG seizures. The pups display behaviour including initial masticatory movements and salivation, developing to periods of facial and forelimb myoclonus and progressing to the most commonly observed behaviour of wild running, loss of posture and swimming motions. The high amplitude high frequency spiking is sustained and corresponds to wild running and swimming behaviours during recordings 1-2 h after KA. By 4 hours, continuous seizures have abated but the EEG continues to display intermittent lower-amplitude high frequency spiking and high amplitude low frequency spikes even after 24 h. The pathological consequences of neonatal seizures in the model include hippocampal cell death and the animals later display unilateral hippocampal sclerosis.
Digitized EEG recordings were analyzed off-line using manual assessment and automated software. The occurrence of high amplitude high frequency spiking during seizures is synonymous with injury-causing electrographic seizures during SE (also termed type IV electrographic seizures) (Lowenstein et al., 1991; Henshall et al., 2000). The duration of high-frequency (>5 Hz) high-amplitude (>2× baseline) polyspike discharges of ≥5 s duration (HAHFDs) was counted by a reviewer blind to treatment. Further EEG analysis was performed by uploading EEG into Labchart7 software (ADInstruments) to calculate the power spectral density (total power, a measure of the input signal's power (amplitude) over frequency) EEG spectrogram (spectral power against frequency and time). […]

[2] = tested on: Adult male C57BL/6 mice; experiment: Refractory SE model in mice, drugs given 60 min post-KA, EEG during the next hour; format: in vivo
Procedure: Adult male C57BL/6 mice (20-25 g) were obtained from Harlan UK (Blackthorn, UK). Mice were first anesthetized using isoflurane (3-5%) and maintained normothermic by means of a feedback-controlled heat blanket (Harvard Apparatus Ltd, Kent, UK). Mice were next placed in a stereotaxic frame and three partial craniectomies performed to affix cortical skull-mounted EEG electrodes (Bilaney Consultants Ltd, Sevenoaks, UK). EEG was recorded using a Grass Comet XL digital EEG (Medivent Ltd, Lucan, Ireland). A guide cannula was affixed (coordinates from Bregma: AP = 0.94; L = 2.85 mm) and the assembly fixed in place with dental cement. Anesthesia was then discontinued and freely moving mice were placed inside a clear perspex recording chamber. EEG recordings were commenced and after establishing baseline EEG for a few minutes, an injection cannula was lowered through the guide cannula for injection of kainic acid (KA) (Ocean Produce International, Nova Scotia, Canada) into the basolateral amygdala nucleus (0.3 µg in 0.2 µl phosphate-buffered saline). Non-seizure control mice underwent the same surgical procedure but received 0.2 µl intra-amygdala vehicle. Mice were killed at different time-points (1, 4, 8 or 24 h) later and perfused with saline to remove intravascular blood components. Brains were either flash-frozen whole in 2-methylbutane at […] or perfused with 4% PFA for histopathology, or dissected on ice to obtain whole hippocampus or microdissected to obtain the different hippocampal subfields (CA1, DG and CA3).
Digitized EEG recordings were analyzed off-line using manual assessment and automated software. The occurrence of high amplitude high frequency spiking during seizures is synonymous with injury-causing electrographic seizures during SE (also termed type IV electrographic seizures) (Lowenstein et al., 1991; Henshall et al., 2000). The duration of high-frequency (>5 Hz) high-amplitude (>2× baseline) polyspike discharges of ≥5 s duration (HAHFDs) was counted by a reviewer blind to treatment. Further EEG analysis was performed by uploading EEG into Labchart7 software (ADInstruments) to calculate the power spectral density (total power, a measure of the input signal's power (amplitude) over frequency) EEG spectrogram (spectral power against frequency and time).
A-438079 (3-[[5-(2,3-Dichlorophenyl)-1H-tetrazol-1-yl]methyl]pyridine hydrochloride) (50 µM) was from Tocris Biosciences (Bristol, U.K.) and the P2X7R specific antibody was from Alomone Labs (APR-008, Alomone Labs, Ltd, Jerusalem, Israel) and injected at 0.7 mg/ml. Lorazepam (Ativan®, Wyeth, Taplow, U.K.) (6 mg/kg) was administered intraperitoneally (i.p.) at 40 or 60 min after KA.
To model refractory SE, seizures were allowed to continue beyond the normal time when lorazepam is given (40 min) and instead the effects of drugs were recorded 60 min post-KA on the EEG during the next hour.

[3] = tested on: P2Y receptors; details: selectivity of BBG; cited from earlier work
[4] = target: T1, P2X2 (Homo sapiens, UniProt Q9UBL9); details: selectivity of BBG; cited from earlier work
T1 sequence (Q9UBL9 1-471): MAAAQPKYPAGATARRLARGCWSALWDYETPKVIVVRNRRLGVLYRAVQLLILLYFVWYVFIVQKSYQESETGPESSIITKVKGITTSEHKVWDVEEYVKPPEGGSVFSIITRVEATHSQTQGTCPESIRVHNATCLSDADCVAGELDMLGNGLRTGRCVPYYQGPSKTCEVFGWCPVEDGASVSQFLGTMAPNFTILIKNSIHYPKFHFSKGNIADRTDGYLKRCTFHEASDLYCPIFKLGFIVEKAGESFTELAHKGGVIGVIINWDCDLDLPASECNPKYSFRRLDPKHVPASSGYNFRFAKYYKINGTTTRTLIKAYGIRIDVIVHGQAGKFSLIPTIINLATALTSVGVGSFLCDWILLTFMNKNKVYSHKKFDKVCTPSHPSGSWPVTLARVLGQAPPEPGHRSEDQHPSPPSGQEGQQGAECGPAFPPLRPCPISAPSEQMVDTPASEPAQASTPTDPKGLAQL

| SMILES | seizures ([1]; P10 rat pups) | amplitude ([1]; vs vehicle (PBS)) | total power ([1]; vs vehicle (PBS)) | total seizure time (duration of HAHFDs) ([2]; given 60 min after KA, 60 min recording, vs vehicle) | seizure activity ([2]; given 60 min after KA, particularly within the first 15-30 min following injection) | mice continued in SE ([2]; given alone 60 min after KA, number of mice / group) | inhibition of some P2Y receptors [3] | inhibition of P2X2 [4] |
| --- | --- | --- | --- | --- | --- | --- | --- | --- |
| Cl.Clc1cccc(-c2nnnn2Cc2cccnc2)c1Cl [A-438079, 3-[[5-(2,3-Dichlorophenyl)-1H-tetrazol-1-yl]methyl]pyridine hydrochloride] | strongly reduced | less amplitude | less total power | not significantly different | some suppression | 3/5 |  |  |
| CCOc1ccc(Nc2ccc(C(=C3C=CC(=[N+](CC)Cc4cccc(S(=O)(=O)[O-])c4)C=C3C)c3ccc(N(CC)Cc4cccc(S(=O)(=O)O)c4)cc3C)cc2)cc1 [BBG, Brilliant Blue G] |  |  |  |  |  |  | low micromolar range | low micromolar range |

From EP2604265A1, “P2x7 antagonists as frontline or adjunctive treatment against status epilepticus” (Royal College of Surgeons in Ireland (RCSI), priority 2011, dated 2013)
